Data from patent US20240261367A1, “CYCLIC PEPTIDE IMMUNOMODULATORS” (priority 2021, published 2024).
Starred links: 1 amine or outer side, 2 acyl side, 3 side chain; linkers in the order of their positions; H or OH if unused. Positions of bridges follow the written chain, without caps; N, C: chain ends. Non-standard residues stand in square brackets, D forms with d. Residues, ends and D or L forms follow the SMILES beside them. X2 = COC(=O)CCCCCCCCCCCCCCCCC(=O)N[C@@H](CCC(=O)NCCOCCOCCOCCOCCOCCOCCOCCOCCOCCOCCOCCn1cc(C[C@H](NC(=N)CNC(=O)[C@H](CSCC(=O)[*:1])NC(=N)[C@H](CC(C)C)N[*:2])C(=O)OC)nn1)C(=O)OC; Ala(1-CH2COOH-inden-3-yl) = N[C@@H](CC1=CC(CC(=O)O)c2ccccc21)C(=O)O; Hyp = O=C(O)[C@@H]1C[C@@H](O)CN1; NMeNle = CCCC[C@H](NC)C(=O)O; NMeA = CN[C@@H](C)C(=O)O; Dab = NCC[C@H](N)C(=O)O; Dap = NC[C@H](N)C(=O)O

Biological target: T1, PD-1/PD-L1 (Homo sapiens, UniProt Q9NZQ7)
T1 construct: TVMV protease site linker (C); made in house; host or cells: HEK293T cells
Test: PD-1/PD-L1 Homogenous Time-Resolved Fluorescence (HTRF) binding assay
Details: PD-L1-His (10 nM) pre-incubated with inhibitor 15 m, then PD-1-Ig (20 nM)

T1 sequence (Q9NZQ7 18-239): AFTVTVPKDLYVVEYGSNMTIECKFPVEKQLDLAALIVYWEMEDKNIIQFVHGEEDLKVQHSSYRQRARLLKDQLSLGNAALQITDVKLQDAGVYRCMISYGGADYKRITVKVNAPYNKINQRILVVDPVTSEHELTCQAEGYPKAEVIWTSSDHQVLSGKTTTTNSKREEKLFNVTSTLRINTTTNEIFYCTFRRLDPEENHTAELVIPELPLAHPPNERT

SMILES	IC50 [µM]
CCCC[C@H]1C(=O)N(C)[C@@H](CCCC)C(=O)N[C@@H](CC(C)C)C(=O)N[C@H](C(=O)NCC(=O)N[C@@H](Cc2cn(CCOCCOCCOCCOCCOCCOCCOCCOCCOCCOCCOCCNC(=O)CC[C@H](NC(=O)CCCCCCCCCCCCCCCCC(=O)O)C(=O)O)nn2)C(=O)O)CSCC(=O)N[C@@H](Cc2ccc(O)cc2)C(=O)N(C)[C@@H](C)C(=O)N[C@@H](CC(N)=O)C(=O)N2CCC[C@H]2C(=O)N[C@@H](CN)C(=O)N[C@@H](CC(C)C)C(=O)N2C[C@H](O)C[C@H]2C(=O)N[C@@H](Cc2c[nH]c3ccccc23)C(=O)N[C@@H](CCNC(=O)OC)C(=O)N[C@@H](Cc2cn(CC(=O)O)c3ccccc23)C(=O)N1C [Example 5001]	0.00058
CCCC[C@H]1C(=O)N(C)[C@@H](CCCC)C(=O)N[C@@H](CC(C)C)C(=O)N[C@H](C(=O)NCC(=O)N[C@@H](Cc2cn(CCOCCOCCOCCOCCOCCOCCOCCOCCOCCOCCOCCNC(=O)CC[C@H](NC(=O)CCCCCCCCCCCCCCCCC(=O)O)C(=O)O)nn2)C(=O)O)CSCC(=O)N[C@@H](Cc2ccc(O)cc2)C(=O)N(C)[C@@H](C)C(=O)N[C@@H](CC(N)=O)C(=O)N2CCC[C@H]2C(=O)N[C@@H](CNC(=O)OC)C(=O)N[C@@H](CC(C)C)C(=O)N2C[C@H](O)C[C@H]2C(=O)N[C@@H](Cc2c[nH]c3ccccc23)C(=O)N[C@@H](CCNC(=O)OCC)C(=O)N[C@@H](Cc2cn(CC(=O)O)c3ccccc23)C(=O)N1C [Example 7012]	0.008
CCCC[C@H]1C(=O)N(C)[C@@H](CCCC)C(=O)N[C@@H](CC(C)C)C(=O)N[C@H](C(=O)NCC(=O)N[C@@H](Cc2cn(CCOCCOCCOCCOCCOCCOCCOCCOCCOCCOCCOCCNC(=O)CC[C@H](NC(=O)CCCCCCCCCCCCCCCCC(=O)O)C(=O)OC)nn2)C(=O)O)CSCC(=O)N[C@@H](Cc2ccc(O)cc2)C(=O)N(C)[C@@H](C)C(=O)N[C@@H](CC(N)=O)C(=O)N2CCC[C@H]2C(=O)N[C@@H](CN)C(=O)N[C@@H](CC(C)C)C(=O)N2C[C@H](O)C[C@H]2C(=O)N[C@@H](Cc2c[nH]c3ccccc23)C(=O)N[C@@H](CCN)C(=O)N[C@@H](Cc2cn(CC(=O)OC)c3ccccc23)C(=O)N1C [Example 3003]	0.0093
CCCC[C@H]1C(=O)N(C)[C@@H](CCCC)C(=O)N[C@@H](CC(C)C)C(=O)N[C@H](C(=O)NCC(=O)N[C@@H](Cc2cn(CCOCCOCCOCCOCCOCCOCCOCCOCCOCCOCCOCCNC(=O)CC[C@H](NC(=O)CCCCCCCCCCCCCCCCC(=O)OC)C(=O)OC)nn2)C(=O)O)CSCC(=O)N[C@@H](Cc2ccc(O)cc2)C(=O)N(C)[C@@H](C)C(=O)N[C@@H](CC(N)=O)C(=O)N2CCC[C@H]2C(=O)N[C@@H](CN)C(=O)N[C@@H](CC(C)C)C(=O)N2C[C@H](O)C[C@H]2C(=O)N[C@@H](Cc2c[nH]c3ccccc23)C(=O)N[C@@H](CCN)C(=O)N[C@@H](CC2=CC(CC(=O)O)c3ccccc32)C(=O)N1C (stereo partly drawn) [Example 1011]	0.011
CCCC[C@H]1C(=O)N(C)[C@@H](CCCC)C(=O)N[C@@H](CC(C)C)C(=O)N[C@H](C(=O)NCC(=O)N[C@@H](Cc2cn(CCOCCOCCOCCOCCOCCOCCOCCOCCOCCOCCOCCNC(=O)CC[C@H](NC(=O)CCCCCCCCCCCCCCCCC(=O)O)C(=O)O)nn2)C(=O)O)CSCC(=O)N[C@@H](Cc2ccc(O)cc2)C(=O)N(C)[C@@H](C)C(=O)N[C@@H](CC(N)=O)C(=O)N2CCC[C@H]2C(=O)N[C@@H](CNC(=O)OCc2oc(=O)oc2C)C(=O)N[C@@H](CC(C)C)C(=O)N2C[C@H](O)C[C@H]2C(=O)N[C@@H](Cc2c[nH]c3ccccc23)C(=O)N[C@@H](CCNC(=O)OC)C(=O)N[C@@H](Cc2cn(CC(=O)O)c3ccccc23)C(=O)N1C [Example 7006]	0.043
CCCC[C@H]1C(=O)N(C)[C@@H](CCCC)C(=O)N[C@@H](CC(C)C)C(=O)N[C@H](C(=O)NCC(=O)N[C@@H](Cc2cn(CCOCCOCCOCCOCCOCCOCCOCCOCCOCCOCCOCCNC(=O)CC[C@H](NC(=O)CCCCCCCCCCCCCCCCC(=O)O)C(=O)OC)nn2)C(=O)OC)CSCC(=O)N[C@@H](Cc2ccc(O)cc2)C(=O)N(C)[C@@H](C)C(=O)N[C@@H](CC(N)=O)C(=O)N2CCC[C@H]2C(=O)N[C@@H](CN)C(=O)N[C@@H](CC(C)C)C(=O)N2C[C@H](O)C[C@H]2C(=O)N[C@@H](Cc2c[nH]c3ccccc23)C(=O)N[C@@H](CCN)C(=O)N[C@@H](Cc2cn(CC(=O)OC)c3ccccc23)C(=O)N1C [Example 3004]	0.021
CCCC[C@H]1C(=O)N(C)[C@@H](CCCC)C(=O)N[C@@H](CC(C)C)C(=O)N[C@H](C(=O)NCC(=O)N[C@@H](Cc2cn(CCOCCOCCOCCOCCOCCOCCOCCOCCOCCOCCOCCNC(=O)CC[C@H](NC(=O)CCCCCCCCCCCCCCCCC(=O)O)C(=O)O)nn2)C(=O)O)CSCC(=O)N[C@@H](Cc2ccc(O)cc2)C(=O)N(C)[C@@H](C)C(=O)N[C@@H](CC(N)=O)C(=O)N2CCC[C@H]2C(=O)N[C@@H](CNC(=O)OCC)C(=O)N[C@@H](CC(C)C)C(=O)N2C[C@H](O)C[C@H]2C(=O)N[C@@H](Cc2c[nH]c3ccccc23)C(=O)N[C@@H](CCNC(=O)OCC)C(=O)N[C@@H](CC2=CC(CC(=O)O)c3ccccc32)C(=O)N1C (stereo partly drawn) [Example 1008]	0.0059
CCCC[C@H]1C(=O)N(C)[C@@H](CCCC)C(=O)N[C@@H](CC(C)C)C(=N)N[C@H](C(=O)NCC(=N)N[C@@H](Cc2cn(CCOCCOCCOCCOCCOCCOCCOCCOCCOCCOCCOCCNC(=O)CC[C@H](NC(=O)CCCCCCCCCCCCCCCCC(=O)OC)C(=O)OC)nn2)C(=O)OC)CSCC(=O)N[C@@H](Cc2ccc(O)cc2)C(=O)N(C)[C@@H](C)C(=O)N[C@@H](CC(N)=O)C(=O)N2CCC[C@H]2C(=O)N[C@@H](CN)C(=O)N[C@@H](CC(C)C)C(=O)N2C[C@H](O)C[C@H]2C(=O)N[C@@H](Cc2c[nH]c3ccccc23)C(=O)N[C@@H](CCN)C(=O)N[C@@H](CC2=CC(CC(=O)O)c3ccccc32)C(=O)N1C (stereo partly drawn) [Example 1012] (Y[NMeA]NP[Dap]L[Hyp]W[Dab][Ala(1-CH2COOH-inden-3-yl)][NMeNle][NMeNle]; linker N-C via X2)	0.011
C=C(CC[C@@H]1NC(=O)[C@H](Cc2c[nH]c3ccccc23)NC(=O)[C@@H]2C[C@@H](O)CN2C(=O)[C@H](CC(C)C)NC(=O)[C@H](CNC(=O)CC[C@@H](C)[C@H]2CC[C@H]3[C@@H]4[C@H](O)C[C@@H]5C[C@H](O)CC[C@]5(C)[C@H]4C[C@H](O)[C@]23C)NC(=O)[C@@H]2CCCN2C(=O)[C@H](CC(N)=O)NC(=O)[C@H](C)N(C)C(=O)[C@H](Cc2ccc(O)cc2)NC(=O)CSC[C@@H](C(=O)NCC(=O)N[C@@H](Cc2cn(CCOCCOCCOCCOCCOCCOCCOCCOCCOCCOCCOCCNC(=O)CC[C@H](NC(=O)CCCCCCCCCCCCCCCCC(=O)O)C(=O)O)nn2)C(=O)O)NC(=O)[C@H](CC(C)C)NC(=O)[C@H](CCCC)N(C)C(=O)[C@H](CCCC)N(C)C(=O)[C@H](Cc2cn(CC(=O)O)c3ccccc23)NC1=O)CC[C@@H](C)[C@H]1CC[C@H]2[C@@H]3[C@H](O)C[C@@H]4C[C@H](O)CC[C@]4(C)[C@H]3C[C@H](O)[C@]12C [Example 1004]	0.2
